Assays:
[1] = In vivo pharmacokinetics in mice (oral bioavailability, clearance); conditions: for bioavailability: female, BomTac:NMRI-Foxn1nu, mouse, plasma, mice, AUC_DN oral (typically 30 mg/kg) / AUC_DN IV (5 mg/kg) * 100, read-out: F% (oral bioavailability in mice); for Mouse CL (% Qh): mouse clearance as % of hepatic blood flow
Experimental: Bioavailability in mice was determined by comparing plasma exposure after oral administration with plasma exposure after intravenous administration (see Experimental Part). The investigated data set includes PROTACs with very low (F < 1%), low (F < 5%) and medium/high (F > 5%, in bold in Table ) oral bioavailability. Only low-clearance PROTACs were investigated, with clearance of less than 10% of the hepatic blood flow, to avoid extensive hepatic first-pass effect (Mouse CL see Table S2).
The authors confirm that the research in this study complies with all relevant ethical regulations. All animal studies were approved by the internal ethics committee (called “ethics committee”) of Boehringer Ingelheim RCV GmbH & Co KG in the department of Cancer Pharmacology and Disease Positioning. Furthermore, all protocols were approved by the Austrian governmental committee (MA 60 Veterinary office; approval numbers GZ: 903122/2017/21, GZ: 154399/2018/16, GZ: MA 58–670393–2019–18, GZ: MA 58–546776–2022–13). Female BomTac:NMRI-Foxn1nu mice were obtained from Taconic Denmark at an age of 6–8 weeks. After arrival at the local AAALAC accredited animal facility at Boehringer Ingelheim RCV GmbH & Co KG mice were allowed to adjust to housing conditions for at least 5 days before the start of the experiment, i.e. mice in all experiments were 7–9 weeks old. Mice were group-housed under pathogen-free and controlled environmental conditions (21 ± 1.5 °C temperature, 55 ± 10% humidity) and handled according to the institutional, governmental and European Union guidelines (Austrian Animal Protection Laws, GV SOLAS and FELASA). Animal studies were approved as described in the Ethics section. Food and water were provided ad libitum.
All pharmacokinetic studies were conducted with three mice per dose group and testing route. Oral bioavailability was determined by comparing the dose-normalized area under the plasma concentration–time curve (AUC_DN) following oral administration to the AUC_DN after intravenous (IV) administration of the same drug. All oral administrations were conducted with a volume of application of 10 mL/kg, typically at a dose of 30 mg/kg as a solution in a 25% to 40% HP-β-CD at a pH range of 4 to 5. Intravenous administrations were conducted at a dose of 5 mg/kg, with a volume of application of 5 mL/kg in 25% HP-β-CD at a pH of 5. Blood samples were obtained from the vena saphena at five time points after each administration, with the aim of measuring the drug concentration in the plasma. The concentrations of the compound in plasma samples were determined by quantitative HPLC-MS/MS, employing an internal standard. Calibration and quality control samples were prepared using blank plasma from untreated animals. The samples were precipitated with acetonitrile and subsequently injected into an HPLC system (Agilent 1200). The separation was conducted using a gradient of 5 mmol/L ammonium acetate at pH 4.0 and acetonitrile with 0.1% formic acid on a 2.1 mm by 50 mm XBridge BEH C18 reversed-phase column with 2.5 μm particles (Waters). The HPLC was interfaced with an ESI-operated triple quadrupole mass spectrometer (5000 or 6500+ Triple Quad System, SCIEX) operated in multiple reaction monitoring mode. The chromatograms were analyzed using Analyst (SCIEX), and the pharmacokinetic parameters, such as AUC_DN, were calculated using noncompartmental analysis with BI-proprietary software.
The oral bioavailability (F%) was calculated using the following formula: F% = AUC_DN_oral/AUC_DN_IV) * 100.

[2] = BRlogD chromatographic lipophilicity (XBridge Shield RP18); type: physicochemical; conditions: XBridge Shield RP18 HPLC column (130 Å, 5 µm, 5 cm × 4.6 mm); 60% ACN / 40% 20 mM ammonium acetate, pH 7
Experimental: Lipophilicity was assessed using three chromatographic descriptors, each simulating distinct aspects of membrane environments. BRlogD is a surrogate of the octanol/water distribution coefficient (log D oct) reflecting a general partitioning across biological membranes. Log k W ^IAM implements an Immobilized Artificial Membrane (IAM) column which provides a lipophilicity index in an environment resembling the membrane phospholipids. Finally, log k′80 PLRP-S reflects retention in a hydrophobic polymeric column environment, mimicking the nonpolar core of lipid bilayers, and acts as a surrogate for the toluene/water partition coefficient (log D tol). Lipophilicity remained within a moderate range across all systems.
All chromatographic measurements were performed using the Thermo Scientific Inc. HPLC DIONEX Ultimate 3000 connected to an RS diode array and the Chromeleon 7.2.10 software (www.thermofisher.com). 1.5 mL HPLC vials, 9 mm PP screw caps, and high-performance ergonomic single-channel variable volume pipettors from VWR Signature were used. A Eutech pH Meter 2700 was used to regulate the pH of each buffer and sample (www.fishersci.com). For all the chromatographic descriptors, the mobile phase consisted of an acetonitrile solution (ACN) and 20 mM AAB, pH 7. Moreover, 10 μL was set as the volume of injection of compound concentrations ranging from 50 to 100 μg/mL in ACN/buffer mixtures. One mL/min was chosen as the isocratic flow rate and 30 °C as the oven temperature. However, each chromatographic system (RP) had its own conditions:
BRlogD as an analog of log Poct required the use of the XBridge Shield RP18 (130 Å, 5 μm, 5 cm × 4.6 mm) column by Waters (www.waters.com). The eluent was composed of a 60% ACN and 40% 20 mM ammonium acetate buffer (v/v) mixture. The retention time was measured for the analyte and the log k′60 was calculated (capacity factor k′60 = [t R (60% ACN) – t 0]/t 0) and then converted to the corresponding BRlogD value using the equation BRlogD = 3.31x + 2.79. In addition, acetone, caffeine, ibuprofen, lidocaine, phenol, and a mixture of uracile, acetophenone, and toluene were used as gold standards.

[3] = EPSA (supercritical fluid chromatography) and EPSA-to-TPSA ratio; type: physicochemical; conditions: for EPSA: supercritical fluid chromatographic (SFC) system, SFC-based polarity descriptor
Source text: Polarity was quantified by Δlog k W ^IAM, a descriptor obtained from the experimental log k W ^IAM and BRlogD. In addition, we also measured EPSA (Table S2), another polarity descriptor based on a supercritical fluid chromatographic (SFC) system widely used in drug discovery.
Chameleonicity was monitored by Chamelogk, a recent chromatographic descriptor able to capture environment-dependent conformational changes by monitoring different mobile phase compositions on the PLRP-S column. All PROTACs behave as strong chameleons (Chamelogk > 0.6). Additionally, we calculated the EPSA-to-TPSA ratio (ETR), a recently proposed index for polarity masking. The ETR values remained consistently around 0.7 across the series, supporting the notion that conformational effects contribute uniformly to the polarity profiles of the analyzed PROTACs.

Cc1ncsc1-c1ccc([C@H](CCCN2CCC(c3ccc4c(c3)n(C3CCCC3)c3nc(=O)c5c(Br)cccc5n43)CC2)NC(=O)[C@@H]2C[C@@H](O)CN2C(=O)[C@@H](NC(=O)C2(F)CC2)C(C)(C)C)cc1 [A3-1]
bioavailability [1]: 0.6% | Mouse CL (% Qh) [1]: 7.9 % Qh | chromatographic logD [2]: 2.29 | EPSA [3]: 133 A^2

Cc1ncsc1-c1ccc([C@H](C[C@H](C)CN2CCC(c3ccc4c(c3)n(C3CCCC3)c3nc(=O)c5c(Br)cccc5n43)CC2)NC(=O)[C@@H]2C[C@@H](O)CN2C(=O)[C@@H](NC(=O)C2(F)CC2)C(C)(C)C)cc1 [A3-2]
bioavailability [1]: 5.4% | Mouse CL (% Qh) [1]: 3.6 % Qh | chromatographic logD [2]: 3.29 | ETR (EPSA-to-TPSA ratio) [3]: 0.68 | EPSA [3]: 130 A^2

Cc1ncsc1-c1ccc([C@H](C[C@@H](C)CN2CCC(c3ccc4c(c3)n(C3CCCC3)c3nc(=O)c5c(Br)cccc5n43)CC2)NC(=O)[C@@H]2C[C@@H](O)CN2C(=O)[C@@H](NC(=O)C2(F)CC2)C(C)(C)C)cc1 [A3-3]
bioavailability [1]: 16.4% | Mouse CL (% Qh) [1]: 9.3 % Qh | chromatographic logD [2]: 3.32 | ETR (EPSA-to-TPSA ratio) [3]: 0.70 | EPSA [3]: 130 A^2

Cc1ncsc1-c1ccc([C@H](CCCCCN2CCC(c3ccc4c(c3)n(C3CCCC3)c3nc(=O)c5c(Br)cccc5n43)CC2)NC(=O)[C@@H]2C[C@@H](O)CN2C(=O)[C@@H](NC(=O)C2(F)CC2)C(C)(C)C)cc1 [A5-1]
bioavailability [1]: 4.3% | Mouse CL (% Qh) [1]: 2.5 % Qh | chromatographic logD [2]: 2.46 | ETR (EPSA-to-TPSA ratio) [3]: 0.75 | EPSA [3]: 136 A^2

Cc1ncsc1-c1ccc([C@H](CC[C@H](C)CCN2CCC(c3ccc4c(c3)n(C3CCCC3)c3nc(=O)c5c(Br)cccc5n43)CC2)NC(=O)[C@@H]2C[C@@H](O)CN2C(=O)[C@@H](NC(=O)C2(F)CC2)C(C)(C)C)cc1 [A5-2]
bioavailability [1]: 22.1% | Mouse CL (% Qh) [1]: 2.3 % Qh | chromatographic logD [2]: 2.76 | ETR (EPSA-to-TPSA ratio) [3]: 0.73 | EPSA [3]: 133 A^2

Cc1ncsc1-c1ccc([C@H](CC[C@@H](C)CCN2CCC(c3ccc4c(c3)n(C3CCCC3)c3nc(=O)c5c(Br)cccc5n43)CC2)NC(=O)[C@@H]2C[C@@H](O)CN2C(=O)[C@@H](NC(=O)C2(F)CC2)C(C)(C)C)cc1 [A5-3]
bioavailability [1]: 31.5% | Mouse CL (% Qh) [1]: 3.9 % Qh | chromatographic logD [2]: 2.8 | ETR (EPSA-to-TPSA ratio) [3]: 0.73 | EPSA [3]: 133 A^2

Cc1ncsc1-c1ccc([C@@H](CC[C@@H](C)CCN2CCC(c3ccc4c(c3)n(C3CCCC3)c3nc(=O)c5c(Br)cccc5n43)CC2)NC(=O)[C@@H]2C[C@@H](O)CN2C(=O)[C@@H](NC(=O)C2(F)CC2)C(C)(C)C)cc1 [A5-4]
bioavailability [1]: 1.2% | Mouse CL (% Qh) [1]: 2.8 % Qh | chromatographic logD [2]: 2.76 | ETR (EPSA-to-TPSA ratio) [3]: 0.73 | EPSA [3]: 134 A^2

Cc1ncsc1-c1ccc([C@H](COCCN2CCC(c3ccc4c(c3)n(C3CCCC3)c3nc(=O)c5c(Br)cccc5n43)CC2)NC(=O)[C@@H]2C[C@@H](O)CN2C(=O)[C@@H](NC(=O)C2(F)CC2)C(C)(C)C)cc1 [B-1]
bioavailability [1]: 0.9% | Mouse CL (% Qh) [1]: 8.5 % Qh | chromatographic logD [2]: 2.64 | ETR (EPSA-to-TPSA ratio) [3]: 0.69 | EPSA [3]: 128 A^2

Cc1ncsc1-c1ccc([C@H](CO[C@H](C)CN2CCC(c3ccc4c(c3)n(C3CCCC3)c3nc(=O)c5c(Br)cccc5n43)CC2)NC(=O)[C@@H]2C[C@@H](O)CN2C(=O)[C@@H](NC(=O)C2(F)CC2)C(C)(C)C)cc1 [B-2]
bioavailability [1]: 1.7% | Mouse CL (% Qh) [1]: 5.4 % Qh | chromatographic logD [2]: 2.64 | ETR (EPSA-to-TPSA ratio) [3]: 0.68

Cc1ncsc1-c1ccc([C@H](CO[C@@H](C)CN2CCC(c3ccc4c(c3)n(C3CCCC3)c3nc(=O)c5c(Br)cccc5n43)CC2)NC(=O)[C@@H]2C[C@@H](O)CN2C(=O)[C@@H](NC(=O)C2(F)CC2)C(C)(C)C)cc1 [B-3]
bioavailability [1]: 2.3% | Mouse CL (% Qh) [1]: 7.1 % Qh | chromatographic logD [2]: 2.58 | ETR (EPSA-to-TPSA ratio) [3]: 0.68 | EPSA [3]: 124 A^2

Cc1ncsc1-c1ccc([C@H](COC(C)(C)CN2CCC(c3ccc4c(c3)n(C3CCCC3)c3nc(=O)c5c(Br)cccc5n43)CC2)NC(=O)[C@@H]2C[C@@H](O)CN2C(=O)[C@@H](NC(=O)C2(F)CC2)C(C)(C)C)cc1 [B-4]
bioavailability [1]: 90.9% | Mouse CL (% Qh) [1]: 6.0 % Qh | chromatographic logD [2]: 3.25 | ETR (EPSA-to-TPSA ratio) [3]: 0.67 | EPSA [3]: 127 A^2
